Earlier results in patent US12000829B2, “Selection of patients for combination therapy” (SYNDAX PHARMACEUTICALS, INC., priority 2018, dated 2024).
Like-named read-outs stand apart in the source and are kept apart here.

Legend:
[1] = system: squamous or non-squamous NSCLC; details: NSCLC and metastatic melanoma cohorts
[2] = system: modestly immunogenic mouse tumors; details: in combination with immune checkpoint blockade agents
[3] = system: MDSCs and CD14+HLA-DR^Hi monocytes; details: ER+ breast cancer patients, combined with exemestane
[4] = system: syngeneic mouse tumor models of lung and renal cell carcinoma; details: two syngeneic mouse tumor models; tumor growth and survival
[5] = system: human carcinoma cell lines
[6] = system: melanoma

MPDL3280A: human anti-PD-L1 mAb with engineered Fc domain minimizing ADCC
responses [1]: durable responses

Nc1ccccc1NC(=O)c1ccc(CNC(=O)OCc2cccnc2)cc1 [Entinostat, N-(2-aminophenyl)-4-[N-(pyridine-3-yl)methoxycarbonylamino-methyl]-benzamide]
effect on tumors [2]: can eradicate modestly immunogenic mouse tumors | effect on CD14+HLA-DR^Hi monocytes in patients [3]: increased immunocompetent CD14+HLA-DR^Hi monocytes | effect on MDSCs in patients [3]: reduction of immunosuppressive MDSCs | antitumor effect of PD-1 inhibition [4]: enhanced the antitumor effect of PD-1 inhibition

avelumab: fully human anti-PD-L1 IgG1 antibody
lysis ([5]; NK cells as effectors): Lysis was increased | lysis ([5]; NK cells preactivated with IL-12): increased lysis | lysis ([5]; NK-mediated ADCC vs whole PBMCs or dendritic cells isolated from PBMCs): Little or no lysis | human carcinoma cell lines in which ADCC was induced ([5]; PBMCs as effectors): 8 out of 18 | cell lines with augmented lysis ([5]; tumor cell lines pretreated with IFN-γ): 4 out of 10

Pembrolizumab: humanized monoclonal IgG4 anti-PD-1 antibody
additional patients with unconfirmed responses ([6]; human, in vivo): 8 patients | biopsies of responding tumors ([6]; human, in vivo): dense infiltration by CD8^+ T cells | rate of severe toxicities ([6]; less dose intense cohorts): < 10%
